Laboratory results reported in US20250195427A1, “ANTI-INFLAMMATORY DRUG-ELUTING COMPOSITIONS AND METHODS” (THE REGENTS OF THE UNIVERSITY OF CALIFORNIA, priority 2022, published 2025).
In brackets after ≈: the same amount, converted by molar mass.

Legend:
[1] = Drug loading of mPEG-b-p(HPMAm-Lacn) micelles by HPLC (loaded concentration, encapsulation efficiency, loading capacity); assay type: physicochemical; conditions: for final concentration of drug loaded inside MCs: polymer 10 mg/mL, 1 mL MC solution, HPLC; for difference in encapsulation efficiency (EE) % with various polymer/drug ratios: polymer/drug ratios 10:0.25 to 10:2
Procedure: Drug loaded MCs were formed by self-assembly via a solvent evaporation method. Briefly, 10 mg of copolymers […] dissolved in 1 mL of acetone. Various amounts of drugs (0.25, 0.5, 1 and 2 mg) were then added to the copolymer solution and vortexed until fully mixed. […] The next day, the MC solution was centrifuged at 4,000 rpm at 22° C. for 10 min to remove unencapsulated drugs. LE, PA, and DEX were three drugs of interest. 30 mg/mL of drug stock solutions were prepared in DMSO. Unloaded MCs were prepared with the same procedure without the addition of drugs. The amount of loaded drugs (LE, PA and DEX) in the polymeric MCs was determined by using High Performance Liquid Chromatography (HPLC). Taking LE as an example, after centrifugation of the MC solution, the unencapsulated LE pellet was redissolved in 1 mL of ACN. […] LE dissolved in ACN (concentration from 0.1 mg/ml to 1 mg/ml) was used for calibration. The encapsulation efficiency (EE) and loading capacity (LC) were calculated as follows: […]

[2] = cited from earlier work

| Compound | final concentration of drug loaded inside MCs ([1]; initially applied drug 0.25 mg) | final concentration of drug loaded inside MCs ([1]; initially applied drug 2 mg) | difference in encapsulation efficiency (EE) % with various polymer/drug ratios [1] | Log P [2] | solubility in water [2] |
| --- | --- | --- | --- | --- | --- |
| CCOC(=O)O[C@]1(C(=O)OCCl)CC[C@H]2[C@@H]3CCC4=CC(=O)C=C[C@]4(C)[C@H]3[C@@H](O)C[C@@]21C [LE, Loteprednol etabonate] | 55.7 ± 10.0 µg/mL | 589.2 ± 75.5 µg/mL | No significant difference | 3.08 | 500 ng/mL (≈ 1.07 µM) |
| CC(=O)OCC(=O)[C@@]1(O)CC[C@H]2[C@@H]3CCC4=CC(=O)C=C[C@]4(C)[C@H]3[C@@H](O)C[C@@]21C [PA, Prednisolone acetate] | 171.7 ± 4.2 µg/mL | 1154.0 ± 108.6 µg/mL | No significant difference | – | – |
